Assay: solvent given as SMILES

COc1ccc(N)cc1
Conditions | solvation free energy, 298 K [kcal/mol]
in CC(C)CCO | -8.92
in O | -7.54

CCC(C)C(C)C (stereo not given)
Conditions | solvation free energy, 298 K [kcal/mol]
in C=CCCCCCCCCCCCCCC | -3.97
in CC#N | -3.2

O=C(O)Cc1ccccc1
Conditions | solvation free energy, 298 K [kcal/mol]
in C=CCCCCCCC=C | -7.39
in CCOC(C)=O | -11.1
in O | -8.74

O=C(O)Cc1ccccc1Nc1c(Cl)cccc1Cl
Conditions | solvation free energy, 298 K [kcal/mol]
in C1COCCO1 | -19.7
in CCCCCO | -18.4
in CCO | -18.5
in CN(C)C=O | -20
in CO | -18.5
in Clc1ccccc1 | -17.7
in NC=O | -17.8

CN(C)C1CCCCC1
Conditions | solvation free energy, 298 K [kcal/mol]
in O | -4.12

COC(=O)c1ccc(Br)cc1
Conditions | solvation free energy, 298 K [kcal/mol]
in CN(C)C=O | -9.25
in O | -4.26

C=C(C)C1CC=C(C)CCC=C(C)CC1 (stereo not given)
Conditions | solvation free energy, 298 K [kcal/mol]
in O | -0.37

CCCCCCO
Conditions | solvation free energy, 298 K [kcal/mol]
in Brc1ccccc1 | -5.98
in C1CCOC1 | -7.42
in CC#N | -6.44
in CC(C)CC(C)(C)C | -5.1
in CC(C)O | -7.54
in CCC(C)=O | -6.96
in CCCCCC | -5.02
in CCCCCCC | -5.27
in CCCCCCCC | -4.99
in CCCCCCCCCC | -4.99
in CCCCCCCCCCCCCCCC | -4.89
in CCCCCCCCCCO | -6.99
in CCCCCCCCO | -7.06
in CCCCCl | -5.99
in CCCCOC(C)=O | -6.83
in CCCOCCC | -6.31
in Cc1ccccc1C | -5.91
in NC=O | -6.04
in O | -4.4
in [2H]O[2H] | -4.57

Cc1ccccc1O
Conditions | solvation free energy, 298 K [kcal/mol]
in CC(C)CC(C)(C)C | -5.68
in O | -5.85

CC(=O)C(C)C
Conditions | solvation free energy, 298 K [kcal/mol]
in CCCCCCCCCCCCCCCC | -3.52
in CCCCCCCCO | -4.15
in O | -3.24
in [2H]O[2H] | -3.22

CCCCC
Conditions | solvation free energy, 298 K [kcal/mol]
in BrC(Br)C(Br)Br | -2.06
in Brc1ccccc1 | -2.95
in C1=Cc2ccccc2C1 | -2.75
in C1CCCCC1 | -3.34
in C1CCOC1 | -3.22
in C1COCCO1 | -2.6
in C=CCCCC | -3.34
in C=CCCCCCC | -3.24
in C=CCCCCCCCC | -3.16
in C=CCCCCCCCCCCCCCC | -2.88
in CC1COC(=O)O1 | -1.59
in CC#N | -2.15
in CC(=O)CC(C)C | -2.86
in CC(=O)N(C)C | -2.29
in CC(=O)O | -2.36
in CC(=O)c1ccccc1 | -2.43
in CC(C)=O | -2.73
in CC(C)CC(C)(C)C | -3.24
in CC(C)CCCC(C)CCCC(C)CCCCC(C)CCCC(C)CCCC(C)C | -2.8
in CC(C)CCO | -2.82
in CC(C)O | -2.6
in CC(C)OC(C)C | -3.35
in CCBr | -3.45
in CCC#N | -2.59
in CCC(C)=O | -2.82
in CCC(C)O | -2.65
in CCCC#N | -2.48
in CCCC(=O)OCC | -3
in CCCC(C)=O | -2.89
in CCCCC(CC)COC(=O)CCCCC(=O)OCC(CC)CCCC | -2.65
in CCCCC(CC)COC(=O)c1ccccc1C(=O)OCC(CC)CCCC | -2.47
in CCCCCC | -3.36
in CCCCCC(C)=O | -2.92
in CCCCCCC | -3.27
in CCCCCCCC | -3.24
in CCCCCCCCC | -3.18
in CCCCCCCCC=CCCCCCCCC(=O)OCC(COC(=O)CCCCCCCC=CCCCCCCCC)OC(=O)CCCCCCCC=CCCCCCCCC | -2.77
in CCCCCCCCCC | -3.16
in CCCCCCCCCCCC | -3.05
in CCCCCCCCCCCCCC | -2.9
in CCCCCCCCCCCCCCCC | -2.93
in CCCCCCCCCOC(=O)c1ccccc1C(=O)OCCCCCCCCC | -2.55
in CCCCCCCCN(CCCCCCCC)CCCCCCCC | -2.81
in CCCCCCCCO | -2.7
in CCCCCCCO | -2.66
in CCCCCCO | -2.68
in CCCCCCOC(C)=O | -2.96
in CCCCCN(CCCCC)CCCCC | -2.98
in CCCCCO | -2.65
in CCCCCl | -3.22
in CCCCN(C=O)CCCC | -2.59
in CCCCN(CCCC)CCCC | -2.9
in CCCCO | -2.7
in CCCCOC(=O)c1ccccc1C(=O)OCCCC | -2.59
in CCCCOC(C)=O | -2.94
in CCCCOCCCC | -3.19
in CCCO | -2.58
in CCN1CCCC1=O | -2.25
in CCN(CC)C(C)=O | -2.48
in CCN(CC)CC | -3.31
in CCNC(C)=O | -2.35
in CCNC=O | -2.11
in CCO | -2.51
in CCOC(=O)c1ccccc1C(=O)OCC | -2.11
in CCOC(C)=O | -2.85
in CCOCC | -3.3
in CCOCCOCCOCC | -2.79
in CCOc1ccccc1 | -2.82
in CN1CCCC1=O | -2.18
in CN1CCCCC1=O | -2.16
in CN1CCN(C)C1=O | -1.88
in CN(C)C=O | -2.18
in CN(C)P(=O)(N(C)C)N(C)C | -2.39
in CNC(C)=O | -2.17
in CNC=O | -1.87
in CO | -2.29
in COC(C)=O | -2.66
in COCCO | -2.16
in COCCOCCOCCOCCOC | -2.2
in COc1ccccc1 | -2.76
in CS(C)=O | -1.41
in Cc1ccc(C)cc1 | -3.16
in Cc1cccc2ccccc12 | -2.63
in Cc1cccc(C)c1 | -3.11
in Cc1cccc(O)c1 | -2.28
in Cc1ccccc1 | -3.15
in Cc1ccccn1 | -2.82
in ClC(Cl)(Cl)Cl | -3.32
in ClC(Cl)C(Cl)Cl | -2.77
in ClC(Cl)Cl | -3.23
in ClCCCl | -2.77
in ClCCl | -3.07
in Clc1cccc2ccccc12 | -2.5
in Clc1ccccc1 | -3.14
in FC(F)(F)C(F)(F)C(F)(F)C(F)(F)C(F)(F)C(F)(F)C(F)(F)C(F)(F)F | -2.06
in FC(F)(F)C(F)(F)C(F)(F)C(F)(F)C(F)(F)C(F)(F)F | -2.15
in Fc1ccccc1 | -3.25
in ICI | -1.67
in Ic1ccccc1 | -2.61
in N#CCCCCC#N | -1.32
in N#CCc1ccccc1 | -1.99
in N#Cc1ccccc1 | -2.48
in NC=O | -0.44
in NCCO | -0.27
in Nc1ccccc1 | -1.89
in O=C1CCCCC1 | -2.73
in O=C1CCCO1 | -1.72
in O=C(O)C(Cl)Cl | -2.12
in O=CN1CCOCC1 | -1.51
in O=Cc1ccco1 | -1.8
in OC1CCCCC1 | -2.46
in OCCO | -0.34
in OCCOCCO | -0.86
in OCCc1ccccc1 | -2.12
in OCc1ccccc1 | -2.06
in OCc1ccco1 | -1.67
in S=C=S | -3.29
in c1ccc2ncccc2c1 | -2.54
in c1ccccc1 | -3.15
in c1ccncc1 | -2.64

CCCCCCCCCCCCCCCCCCCCCCC
Conditions | solvation free energy, 298 K [kcal/mol]
in CC(=O)N(C)C | -15.7
in CC(C)(C)O | -14.2
in CC(C)=O | -13.4
in CCC(C)=O | -14.3
in CCC(C)O | -14.1
in CCCCOC(C)=O | -14.9
in CCOC(C)=O | -14.4
in CN(C)C=O | -15.8
in COC(C)=O | -13.7
in O | 5.07

CCCCC(C)(C)C
Conditions | solvation free energy, 298 K [kcal/mol]
in O | 3.02

CCCCCCNCc1ccc(C)cc1
Conditions | solvation free energy, 298 K [kcal/mol]
in O | -4.97

CCNc1nc(Cl)nc(NC(C)C)n1
Conditions | solvation free energy, 298 K [kcal/mol]
in O | -9.69

CCCCCC(C)O (stereo not given)
Conditions | solvation free energy, 298 K [kcal/mol]
in O | -3.88

CCCCCCCCC=CCCCCCCCC(=O)OCC
Conditions | solvation free energy, 298 K [kcal/mol]
in O | -8.25

c1ccc2c(c1)Sc1ccccc1S2
Conditions | solvation free energy, 298 K [kcal/mol]
in C1COCCO1 | -12.8
in CC(C)CC(C)(C)C | -11.1
in CC(C)CCO | -11.3
in CC(C)CO | -11.1
in CC(C)O | -11
in CC(C)OC(C)C | -11.7
in CCC(C)O | -11.2
in CCCCC(CC)CO | -11.4
in CCCCCC | -11.4
in CCCCCCC | -11.3
in CCCCCCCC | -11.4
in CCCCCCCCCC | -11.3
in CCCCCCCCCCO | -11.6
in CCCCCCCCO | -11.6
in CCCCCCCO | -11.6
in CCCCCCO | -11.5
in CCCCCO | -11.5
in CCCCO | -11.4
in CCCO | -11.3
in CCOCC | -12.1
in CO | -10.9
in COC(C)(C)C | -12.1

Cl
Conditions | solvation free energy, 298 K [kcal/mol]
in C=CCCCCCCCCCCCCCC | -0.82
in ClC(Cl)(Cl)Cl | -0.86

ClC1=C(Cl)C2(Cl)C3C4C=CC(C4)C3C1(Cl)C2(Cl)Cl (stereo not given)
Conditions | solvation free energy, 298 K [kcal/mol]
in CCCCCCCCO | -11.3
in O | -3.75

O=C(O)c1cccc([N+](=O)[O-])c1C(=O)O
Conditions | solvation free energy, 298 K [kcal/mol]
in C1CCOC1 | -19.1
in C1COCCO1 | -18.7
in CC(C)=O | -18.5
in CC(C)CO | -17.8
in CC(C)O | -18.4
in CCC(C)O | -18.1
in CCCCCCCO | -17.6
in CCCCCCO | -17.7
in CCCCCO | -17.8
in CCCCO | -17.9
in CCCO | -18.3
in CCOC(C)=O | -17.3
in COC(C)=O | -18.2
in O | -17.3

CCCCC(=O)OCC
Conditions | solvation free energy, 298 K [kcal/mol]
in O | -2.49

CCCOC(=O)CC
Conditions | solvation free energy, 298 K [kcal/mol]
in O | -2.45

c1ccncc1
Conditions | solvation free energy, 298 K [kcal/mol]
in C1COCCO1 | -5.69
in CC(=O)N(C)C | -5.76
in CC(C)(C)O | -5.4
in CC(C)=O | -5.42
in CC(C)CC(C)(C)C | -4.03
in CC(C)CO | -5.67
in CC(C)O | -5.27
in CCC(C)=O | -5.37
in CCC(C)O | -5.63
in CCCCCC | -4.19
in CCCCCCCCCCCCCCCC | -4.04
in CCCCCCCCO | -5.32
in CCCCN(C=O)CCCC | -5.32
in CCCCO | -5.39
in CCCO | -5.44
in CCO | -5.7
in CNC(C)=O | -5.35
in O | -4.69
in [2H]O[2H] | -4.52

— the CombiSolv-Exp solvation set (Vermeire and Green 2021)
